In publication PMC8373216, “Development and Preclinical Evaluation of New Inhaled Lipoglycopeptides for the Treatment of Persistent Pulmonary Methicillin-Resistant Staphylococcus aureus Infections” (Antimicrobial Agents and Chemotherapy, 2021):
Converted amounts (≈) assume the structure as drawn. Like-named read-outs stand apart in the source and are kept apart here.

Experiments:
Streptococcus pyogenes = assay: Expanded panel broth microdilution MIC/MBC; type: cell-based
Streptococcus agalactiae = assay: Expanded panel broth microdilution MIC/MBC; type: cell-based
[1] = tested on: MRSA ATCC BAA 1556 (USA300) biofilm; assay: Static MRSA biofilm killing, plastic microtiter plate, MEM
Enterococcus faecium = assay: Expanded panel broth microdilution MIC/MBC; type: cell-based; settings: for MIC: Enterococcus faecium
[2] = tested on: Staphylococcus haemolyticus; assay: Expanded panel broth microdilution MIC; type: cell-based
[3] = tested on: Peptostreptococcus micros; assay: Expanded panel broth microdilution MIC; type: cell-based
[4] = tested on: Peptostreptococcus anaerobius; assay: Expanded panel broth microdilution MIC; type: cell-based
Enterococcus faecalis = assay: Expanded panel broth microdilution MIC/MBC; type: cell-based
Cutibacterium acnes = assay: Expanded panel broth microdilution MIC; type: cell-based
[5] = tested on: Staphylococcus lugdunensis; assay: Expanded panel broth microdilution MIC; type: cell-based
[6] = Single-dose nebulized nose-only inhalation PK in healthy rats; type: in vivo, rat
Protocol: Rats were acclimated in the study facility for approximately 1 week prior to study start. Ten or eleven rats per cohort were loaded into the chamber at the time of dosing. […] An additional airflow set to 6 liters/min was admixed with the nebulizer output to further direct the test articles to the animals. […] The remaining port on the chamber was fit with an aerosol sampling filter for dose determination over a 5 min sampling period. The average dose delivered to the nose of each animal was calculated using an algorithm that was previously described ([49]). […] Animals were euthanized for collection of whole lungs and plasma at time points ranging from immediate postdose (IPD; approximately 30 min after dosing for nebulization) to 168 h postdose (7 days). Drugs were extracted from tissues using customized protein precipitation methods with an appropriate internal standard for each compound and transferred for analysis by LC-MS/MS (Sciex API4500 or API6500+ mass spectrometer [Sciex, Framingham, MA]). GraphPad Prism (La Jolla, CA) was used for statistical analyses and data plotting. […] The data were applied to a noncompartmental analysis after extravascular dosing input and fit to a linear up/log down model. Statistical analysis of in vitro intracellular and biofilm activity was based on a two-way ANOVA with a Bonferroni post test. In vivo statistical analysis was based on the Kolmogorov-Smirnov test.

[7] = single nebulized nose-only inhaled dose, healthy rats

Question: Which MIC (Streptococcus pyogenes; S. pyogenes MMX 946, ermR) does the source give for `CCCCCCCCCCNCCN[C@@]1(C)C[C@H](O[C@H]2[C@H](Oc3c4cc5cc3Oc3ccc(cc3Cl)[C@@H](O)[C@@H](NC(=O)[C@@H](CC(C)C)NC)C(=O)N[C@@H](CC(N)=O)C(=O)N[C@H]5C(=O)N[C@H]3C(=O)N[C@H](C(=O)N[C@H](C(=O)O)c5cc(O)c(CNCP(=O)(O)O)c(O)c5-c5cc3ccc5O)[C@H](O)c3ccc(c(Cl)c3)O4)O[C@H](CO)[C@@H](O)[C@@H]2O)O[C@@H](C)[C@H]1O` [Telavancin, telavancin] here?
Answer: Its MIC is 0.06 µg/mL (≈ 0.0342 µM).

Question: What about the “MIC:MBC” value (Streptococcus pyogenes; S. pyogenes ermR) of the same compound?
Answer: Its value is 1.

Question: And the MIC (Streptococcus pyogenes; S. pyogenes ermR, 1 isolate)?
Answer: Its MIC is 0.06 µg/mL (≈ 0.0342 µM).

Question: And the MIC (Streptococcus pyogenes; Streptococcus pyogenes)?
Answer: Its MIC is 0.06 µg/mL (≈ 0.0342 µM).

Question: And the MIC (Streptococcus pyogenes; Streptococcus pyogenes, ATCC19615)?
Answer: The MIC was 0.06 µg/mL (≈ 0.0342 µM).

Question: What about the MIC (Streptococcus pyogenes; Streptococcus pyogenes, read-out: MIC (median)) of the same compound?
Answer: The MIC was 0.06 µg/mL (≈ 0.0342 µM).

Question: And the MIC (Streptococcus agalactiae; S. agalactiae MMX 4115, ermR)?
Answer: Its MIC is 0.06 µg/mL (≈ 0.0342 µM).

Question: What about the MIC (Streptococcus agalactiae; S. agalactiae ermR, 1 isolate) of the same compound?
Answer: Its MIC is 0.06 µg/mL (≈ 0.0342 µM).

Question: What about the “MIC:MBC” value (Streptococcus agalactiae; S. agalactiae, MBC on one organism) of the same compound?
Answer: Its value is over 8.

Question: And the MIC (Streptococcus agalactiae; Streptococcus agalactiae)?
Answer: The MIC was 0.06 µg/mL (≈ 0.0342 µM).

Question: And the MIC (Streptococcus agalactiae; Streptococcus agalactiae, ATCC13813)?
Answer: Its MIC is 0.06 µg/mL (≈ 0.0342 µM).

Question: And the MIC (Streptococcus agalactiae; Streptococcus agalactiae, read-out: MIC (median))?
Answer: The MIC was 0.06 µg/mL (≈ 0.0342 µM).

Question: And the “Reduction in MRSA biofilm titer versus control” value ([1]; doses 1 to 10 μg/ml)?
Answer: Its value is “approximately 2 log10 CFU/ml”.

Question: What about the “Concentrations with statistically significant reduction versus control biofilm” value ([1]; two-way ANOVA, Bonferroni) of the same compound?
Answer: The value was at least 10 µg/mL.

Question: And the “MIC:MBC” value (Enterococcus faecium; E. faecium VanA VRE)?
Answer: Its value is over 4.

Question: And the “MIC:MBC” value (Enterococcus faecium; E. faecium VanB VRE)?
Answer: Its value is over 8.

Question: And the MIC (Enterococcus faecium; E. faecium MMX 4204, VSE)?
Answer: The MIC was 0.06 µg/mL (≈ 0.0342 µM).

Question: What about the MIC (Enterococcus faecium; E. faecium VSE, 1 isolate) of the same compound?
Answer: The MIC was 0.06 µg/mL (≈ 0.0342 µM).

Question: What about the MIC (Enterococcus faecium; VRE, E. faecium MMX 173, VanB VRE) of the same compound?
Answer: Its MIC is 0.06 µg/mL (≈ 0.0342 µM).

Question: What about the MIC (Enterococcus faecium; VRE, E. faecium MMX 851, VanA VRE) of the same compound?
Answer: Its MIC is 2 µg/mL (≈ 1.14 µM).

Question: And the MIC (Enterococcus faecium; VRE, E. faecium VanA VRE, 1 isolate)?
Answer: The MIC was 2 µg/mL (≈ 1.14 µM).

Question: What about the MIC (Enterococcus faecium; VRE, E. faecium VanB VRE, 1 isolate) of the same compound?
Answer: Its MIC is 0.06 µg/mL (≈ 0.0342 µM).

Question: What about the MIC [2] of the same compound?
Answer: The MIC was 0.06 µg/mL (≈ 0.0342 µM).

Question: And the MIC ([2]; ATCC29970)?
Answer: Its MIC is 0.06 µg/mL (≈ 0.0342 µM).

Question: What about the MIC ([3]; P. micros, 1 isolate) of the same compound?
Answer: The MIC was 0.12 µg/mL (≈ 0.0684 µM).

Question: What about the MIC ([3]; Parvimonas micra) of the same compound?
Answer: Its MIC is 0.12 µg/mL (≈ 0.0684 µM).

Question: What about the MIC [4] of the same compound?
Answer: Its MIC is 0.03 µg/mL (≈ 0.0171 µM).

Question: What about the MIC ([4]; ATCC27337) of the same compound?
Answer: The MIC was 0.03 µg/mL (≈ 0.0171 µM).

Question: What about the “MIC:MBC” value (Enterococcus faecalis; E. faecalis VSE, MBC on one organism) of the same compound?
Answer: The value was over 8.

Question: And the “MIC:MBC” value (Enterococcus faecalis; E. faecalis VanA VRE)?
Answer: Its value is 8.

Question: What about the MIC (Enterococcus faecalis; E. faecalis VanA VRE, 1 isolate) of the same compound?
Answer: The MIC was 1 µg/mL (≈ 0.57 µM).

Question: And the MIC (Enterococcus faecalis; Enterococcus faecalis)?
Answer: Its MIC is 0.25 µg/mL (≈ 0.142 µM).

Question: And the MIC (Enterococcus faecalis; Enterococcus faecalis, ATCC29212)?
Answer: Its MIC is 0.12 µg/mL (≈ 0.0684 µM).

Question: And the MIC (Enterococcus faecalis; Enterococcus faecalis, VRE)?
Answer: The MIC was 1 µg/mL (≈ 0.57 µM).

Question: What about the MIC (Enterococcus faecalis; Enterococcus faecalis, read-out: MIC (median)) of the same compound?
Answer: Its MIC is 0.19 µg/mL (≈ 0.108 µM).

Question: What about the MIC (Cutibacterium acnes; ATCC6919) of the same compound?
Answer: The MIC was 0.03 µg/mL (≈ 0.0171 µM).

Question: And the MIC (Cutibacterium acnes; ATCC11827)?
Answer: The MIC was 0.015 µg/mL (≈ 0.00854 µM).

Question: And the MIC (Cutibacterium acnes; read-out: MIC (median))?
Answer: The MIC was 0.02 µg/mL (≈ 0.0114 µM).

Question: And the MIC ([5]; S. lugdunensis, 1 isolate)?
Answer: Its MIC is 0.06 µg/mL (≈ 0.0342 µM).

Question: And the MIC ([5]; Staphylococcus lugdunensis)?
Answer: Its MIC is 0.06 µg/mL (≈ 0.0342 µM).

Question: What about the half-life ([6]; male, Sprague Dawley, rat, in vivo, inhaled or intranasal, single nebulized nose-only inhaled dose, healthy rats, noncompartmental analysis, read-out: Lung t1/2 (converted)) of the same compound?
Answer: The half-life was 21.1 days.

Question: What about the “Drug lung level at 120 h” value ([6]; relative to IPD level, rat lung) of the same compound?
Answer: The value was 81%.

Question: What about the “Lung AUC0-∞” value [6, 7] of the same compound?
Answer: The value was 3877 µg·h/g.

Question: And the “Lung Cmax” value [6, 7]?
Answer: Its value is 12 µg/g.

Question: What about the “Plasma Cmax” value [6, 7] of the same compound?
Answer: The value was “BLQ”.
